Measured values as given in PMC4601019, “Bacillus cereus eﬄux protein BC3310 – a multidrug transporter of the unknown major facilitator family, UMF-2” (Frontiers in Microbiology, 2015).

Biological target: T1, BC3310 (Bacillus cereus, UniProt Q81B77)
T1 construct: gene BC_3310; full-length in pTTQ18 with C-terminal RGSHis6 tag, expressed in E. coli DH5alpha deltaacrAB; 12 predicted TM helices; migrates at ~30 kDa
Experiment: whole-cell ethidium accumulation assay (fluorescence), E. coli expressing BC3310 vs empty vector
Format: cell-based
Conditions: 25 uM ethidium bromide, PBS with 0.4% glucose, pH 7-7.4; CCCP-sensitive efflux

T1 sequence (Q81B77 entry or part of it): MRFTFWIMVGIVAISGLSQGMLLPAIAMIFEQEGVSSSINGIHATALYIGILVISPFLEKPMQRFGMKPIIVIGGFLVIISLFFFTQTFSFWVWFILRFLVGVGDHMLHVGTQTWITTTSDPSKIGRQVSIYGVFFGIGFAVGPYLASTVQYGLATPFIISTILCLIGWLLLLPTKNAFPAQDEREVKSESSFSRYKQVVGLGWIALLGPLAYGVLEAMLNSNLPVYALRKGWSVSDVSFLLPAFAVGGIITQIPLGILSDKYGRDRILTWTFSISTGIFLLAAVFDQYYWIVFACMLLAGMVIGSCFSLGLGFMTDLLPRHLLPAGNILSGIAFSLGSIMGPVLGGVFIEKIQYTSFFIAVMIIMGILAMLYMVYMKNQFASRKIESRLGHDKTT

## CC[n+]1c(-c2ccccc2)c2cc(N)ccc2c2ccc(N)cc21 [ethidium bromide]
  whole-cell ethidium accumulation assay (fluorescence), E. coli expressing BC3310: showed less fluorescence compared to the empty vector control (pTTQ18), thereby implying that BC3310 exports
